Laboratory results taken from paper PMC4193996 (Journal of Experimental & Clinical Cancer Research : CR, 2014).

Assays:
[1] = test system: alternating hairpin duplex sequence 5'-biotin-CGA3T3C(CT)2GA3T3CG; assay: SPR binding to duplex DNA
Experimental: Oligonucleotides 5’-biotin-d [AG3 (T2AG3)3] quadruplex and 5’-biotin-CGA3T3C(CT)2GA3T3CG were purchased from Midland Certified Reagent Company (Midland, TX). Purification of DNA, preparation of solutions, collection of data, and analysis of results were conducted according to methods adopted in an earlier study.
This technique takes advantage of the refractive index change elicits by the binding of the drug with the h-Tel quadruplex DNA sequence 5’-d[AGGG(TTAGGG)3]-3’ or an alternating hairpin duplex sequence immobilized on a sensor chip surface.

[2] = test system: human 'normal' lung WI-38 cells; assay: MTT proliferation assay, WI-38; assay type: cell-based
Experimental: Normal WI-38 diploid human lung fibroblasts and the human colorectal adenocarcinoma HT29 cells were obtained from American Type Culture Collection (Manassas, VA, USA). BJ fibroblasts expressing hTERT and SV40 early region (BJ-EHLT) were obtained as previously reported. Cells were grown in Dulbecco Modified Eagle Medium (D-MEM, Invitrogen Carlsbad, CA, USA) supplemented with 10% fetal calf serum, 2 mM L-glutamin and antibiotics.
MTT (3-(4,5-Dimethylthiazol-2-yl)-2,5-diphenyltetrazolium Bromide) assay was performed in treated and untreated cells for 96 hours. Cells were incubated with MTT solution (Sigma-Aldrich), and the purple formazan crystals were dissolved in isopropanol. Optical densities (OD) at 540 nm was determined on microplate reader.
Firstly, we investigated if they were able to efficiently promote growth inhibition of tumor cells without affecting the survival of normal cells in vitro. In Table 1 we report for each compound the concentration causing 50% of growth inhibition (GI50) calculated by performing a proliferation assay in the human colon cancer cell line HT-29 or in the human ‘normal’ lung WI-38 cells. […] On the basis of results described so far, we decided to exclude from the further analysis ligand 10 for its high value of hERG inhibition (95%) (Table 1).

For `CC(=O)NCC#Cc1ccc2c3cccc4c3c([n+](C)c2c1)-c1ccccc1N4C` [Compound 8], the “Duplex DNA affinity K” value [1] was 0,9 x10^6 M^−1, the “Ratio PMX WI38/HT29” value ([2]; GI50 WI-38 / GI50 HT-29) was 33,5 and the GI50 ([2]; Homo sapiens, WI-38, MTT, 96 hours) was 25.1 µM.
